From BigSolDB 2.1

O=C(NNC(=S)Nc1ccc(Cl)cc1)c1ccncc1
solubility (mole fraction)
Conditions	298.15 K	308.15 K	318.15 K	328.15 K	338.15 K
in transcutol	0.0423	0.0468	0.0514	0.0565	0.0607
in water	5.17e-07	5.93e-07	7.05e-07	8.28e-07	9.75e-07
